Source: patent US20250171438A1 (Agios Pharmaceuticals, Inc., priority 2022, published 2025)

molecular target: T1, human PAH with the R408W mutation (Homo sapiens, UniProt P00439, R408W); test: Cell Based Phenylalanine Flux Assay; conditions: A375 cells expressing human R408W PAH; 24 hrs compound incubation; 13C-Tyrosine by LC-MS; average where tested multiple times; read-out: AC50
T1 construct: expressed in transfected cells
T1 sequence (P00439 1-452 R408W): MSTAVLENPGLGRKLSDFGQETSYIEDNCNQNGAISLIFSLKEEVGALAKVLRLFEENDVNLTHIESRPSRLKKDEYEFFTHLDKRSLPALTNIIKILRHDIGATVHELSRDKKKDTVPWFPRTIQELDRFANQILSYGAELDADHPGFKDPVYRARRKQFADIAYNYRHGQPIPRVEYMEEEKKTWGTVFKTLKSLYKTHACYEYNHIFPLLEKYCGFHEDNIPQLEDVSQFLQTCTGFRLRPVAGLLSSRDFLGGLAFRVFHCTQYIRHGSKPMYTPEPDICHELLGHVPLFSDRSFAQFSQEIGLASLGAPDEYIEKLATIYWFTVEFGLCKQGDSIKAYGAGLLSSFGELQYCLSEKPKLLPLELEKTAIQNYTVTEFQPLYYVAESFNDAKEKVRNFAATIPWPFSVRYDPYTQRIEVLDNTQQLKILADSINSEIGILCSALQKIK

Row | SMILES | AC50
1 | O=C(c1nncs1)N1CCc2[nH]cnc2[C@@H]1c1nc2ccc(Cl)cc2[nH]1 [Example 957, (R)-(4-(6-chloro-1H-benzo[d]imidazol-2-yl)-6,7-dihydro-1H-imidazo[4,5-c]pyridin-5(4H)-yl)(1,3,4-thiadiazol-2-yl)methanone] | > 5000 nM
2 | O=C(c1nncs1)N1CCc2[nH]cnc2[C@H]1c1nc2ccc(Cl)cc2[nH]1 [Example 958, (S)-(4-(6-chloro-1H-benzo[d]imidazol-2-yl)-6,7-dihydro-1H-imidazo[4,5-c]pyridin-5(4H)-yl)(1,3,4-thiadiazol-2-yl)methanone] | 500 to 1000 nM
3 | O=C(C1CC1)N1CCc2[nH]cnc2[C@@H]1c1nc2ccc(Cl)cc2[nH]1 [Example 959, (R)-(4-(6-chloro-1H-benzo[d]imidazol-2-yl)-6,7-dihydro-1H-imidazo[4,5-c]pyridin-5(4H)-yl)(cyclopropyl)methanone] | > 5000 nM
4 | O=C(C1CC1)N1CCc2[nH]cnc2[C@H]1c1nc2ccc(Cl)cc2[nH]1 [Example 960, (S)-(4-(6-chloro-1H-benzo[d]imidazol-2-yl)-6,7-dihydro-1H-imidazo[4,5-c]pyridin-5(4H)-yl)(cyclopropyl)methanone] | 1000 to 5000 nM
5 | O=C(CCC1CC1)N1CCc2[nH]cnc2[C@@H]1c1nc2ccc(F)cc2[nH]1 [Example 961, (R)-3-cyclopropyl-1-(4-(6-fluoro-1H-benzo[d]imidazol-2-yl)-6,7-dihydro-1H-imidazo[4,5-c]pyridin-5(4H)-yl)propan-1-one] | > 5000 nM
6 | O=C(CCC1CC1)N1CCc2[nH]cnc2[C@H]1c1nc2ccc(F)cc2[nH]1 [Example 962, (S)-3-cyclopropyl-1-(4-(6-fluoro-1H-benzo[d]imidazol-2-yl)-6,7-dihydro-1H-imidazo[4,5-c]pyridin-5(4H)-yl)propan-1-one] | < 500 nM
7 | O=C(CC1CC1)N1CCc2[nH]cnc2[C@@H]1c1nc2ccc(F)cc2[nH]1 [Example 963, (R)-2-cyclopropyl-1-(4-(6-fluoro-1H-benzo[d]imidazol-2-yl)-6,7-dihydro-1H-imidazo[4,5-c]pyridin-5(4H)-yl)ethanone] | 1000 to 5000 nM
8 | O=C(CC1CC1)N1CCc2[nH]cnc2[C@H]1c1nc2ccc(F)cc2[nH]1 [Example 964, (S)-2-cyclopropyl-1-(4-(6-fluoro-1H-benzo[d]imidazol-2-yl)-6,7-dihydro-1H-imidazo[4,5-c]pyridin-5(4H)-yl)ethanone] | 500 to 1000 nM
9 | O=C(c1cnn2ccc(Cl)cc12)N1CCc2[nH]cnc2[C@H]1c1nc2ccc(Br)cc2[nH]1 [Example 965, (S)-(4-(6-bromo-1H-benzo[d]imidazol-2-yl)-6,7-dihydro-1H-imidazo[4,5-c]pyridin-5(4H)-yl)(5-chloropyrazolo[1,5-a]pyridin-3-yl)methanone] | 1000 to 5000 nM
10 | O=C(c1cnn2ccc(Cl)cc12)N1CCc2[nH]cnc2[C@@H]1c1nc2ccc(Br)cc2[nH]1 [Example 966, (R)-(4-(6-bromo-1H-benzo[d]imidazol-2-yl)-6,7-dihydro-1H-imidazo[4,5-c]pyridin-5(4H)-yl)(5-chloropyrazolo[1,5-a]pyridin-3-yl)methanone] | > 5000 nM
11 | O=C(c1cnn2cc(F)ccc12)N1CCc2[nH]cnc2[C@H]1c1nc2ccc(Br)cc2[nH]1 [Example 967, (S)-(4-(6-bromo-1H-benzo[d]imidazol-2-yl)-6,7-dihydro-1H-imidazo[4,5-c]pyridin-5(4H)-yl)(6-fluoropyrazolo[1,5-a]pyridin-3-yl)methanone] | 500 to 1000 nM
12 | O=C(c1ccon1)N1CCc2[nH]cnc2[C@H]1c1nc2ccc(Cl)cc2[nH]1 [Example 969, (S)-(4-(6-chloro-1H-benzo[d]imidazol-2-yl)-6,7-dihydro-1H-imidazo[4,5-c]pyridin-5(4H)-yl)(isoxazol-3-yl)methanone] | 500 to 1000 nM
13 | O=C(c1ccon1)N1CCc2[nH]cnc2[C@@H]1c1nc2ccc(Cl)cc2[nH]1 [Example 970, (R)-(4-(6-chloro-1H-benzo[d]imidazol-2-yl)-6,7-dihydro-1H-imidazo[4,5-c]pyridin-5(4H)-yl)(isoxazol-3-yl)methanone] | 1000 to 5000 nM
14 | Brc1ccc2nc([C@@H]3c4nc[nH]c4CCN3Cc3nccs3)[nH]c2c1 [Example 971, (S)-2-((4-(6-bromo-1H-benzo[d]imidazol-2-yl)-6,7-dihydro-1H-imidazo[4,5-c]pyridin-5(4H)-yl)methyl)thiazole] | < 500 nM
15 | Fc1ccc2nc([C@@H]3c4nc[nH]c4CCN3Cc3nccs3)[nH]c2c1 [Example 974, (S)-2-((4-(6-fluoro-1H-benzo[d]imidazol-2-yl)-6,7-dihydro-1H-imidazo[4,5-c]pyridin-5(4H)-yl)methyl)thiazole] | < 500 nM
16 | O=C(c1ncc(Cl)s1)N1CCc2[nH]cnc2[C@H]1c1nc2ccc(Br)cc2[nH]1 [Example 975, (S)-(4-(6-bromo-1H-benzo[d]imidazol-2-yl)-6,7-dihydro-1H-imidazo[4,5-c]pyridin-5(4H)-yl)(5-chlorothiazol-2-yl)methanone] | 500 to 1000 nM

Row | SMILES | AC50
17 | O=C(c1ncc(Cl)s1)N1CCc2[nH]cnc2[C@@H]1c1nc2ccc(Br)cc2[nH]1 [Example 976, (R)-(4-(6-bromo-1H-benzo[d]imidazol-2-yl)-6,7-dihydro-1H-imidazo[4,5-c]pyridin-5(4H)-yl)(5-chlorothiazol-2-yl)methanone] | > 5000 nM
18 | O=C(c1nncs1)N1CCc2[nH]cnc2[C@H]1c1nc2ccc(Br)cc2[nH]1 [Example 977, (S)-(4-(6-bromo-1H-benzo[d]imidazol-2-yl)-6,7-dihydro-1H-imidazo[4,5-c]pyridin-5(4H)-yl)(1,3,4-thiadiazol-2-yl)methanone] | 500 to 1000 nM
19 | O=C(c1nncs1)N1CCc2[nH]cnc2[C@@H]1c1nc2ccc(Br)cc2[nH]1 [Example 978, (R)-(4-(6-bromo-1H-benzo[d]imidazol-2-yl)-6,7-dihydro-1H-imidazo[4,5-c]pyridin-5(4H)-yl)(1,3,4-thiadiazol-2-yl)methanone] | > 5000 nM
20 | Clc1cnc(CN2CCc3[nH]cnc3[C@@H]2c2nc3ccccc3[nH]2)s1 [Example 979, (R)-2-((4-(1H-benzo[d]imidazol-2-yl)-6,7-dihydro-1H-imidazo[4,5-c]pyridin-5(4H)-yl)methyl)-5-chlorothiazole] | > 5000 nM
21 | Clc1cnc(CN2CCc3[nH]cnc3[C@H]2c2nc3ccccc3[nH]2)s1 [Example 980, (S)-2-((4-(1H-benzo[d]imidazol-2-yl)-6,7-dihydro-1H-imidazo[4,5-c]pyridin-5(4H)-yl)methyl)-5-chlorothiazole] | 500 to 1000 nM
22 | O=C(c1ccon1)N1CCc2[nH]cnc2[C@H]1c1nc2ccc(Br)cc2[nH]1 [Example 981, (S)-(4-(6-bromo-1H-benzo[d]imidazol-2-yl)-6,7-dihydro-1H-imidazo[4,5-c]pyridin-5(4H)-yl)(isoxazol-3-yl)methanone] | < 500 nM
23 | O=C(c1ccon1)N1CCc2[nH]cnc2[C@@H]1c1nc2ccc(Br)cc2[nH]1 [Example 982, (R)-(4-(6-bromo-1H-benzo[d]imidazol-2-yl)-6,7-dihydro-1H-imidazo[4,5-c]pyridin-5(4H)-yl)(isoxazol-3-yl)methanone] | 1000 to 5000 nM
24 | O=C(c1nccs1)N1CCc2[nH]cnc2[C@@H]1c1nc2cccc(Cl)c2[nH]1 [Example 983, (R)-(4-(7-chloro-1H-benzo[d]imidazol-2-yl)-6,7-dihydro-1H-imidazo[4,5-c]pyridin-5(4H)-yl)(thiazol-2-yl)methanone] | > 5000 nM
25 | O=C(c1nccs1)N1CCc2[nH]cnc2[C@H]1c1nc2cccc(Cl)c2[nH]1 [Example 984, (S)-(4-(7-chloro-1H-benzo[d]imidazol-2-yl)-6,7-dihydro-1H-imidazo[4,5-c]pyridin-5(4H)-yl)(thiazol-2-yl)methanone] | 500 to 1000 nM
26 | O=C(c1cnn2ccccc12)N1CCc2[nH]cnc2[C@@H]1c1nc2cccc(Cl)c2[nH]1 [Example 985, (R)-(4-(7-chloro-1H-benzo[d]imidazol-2-yl)-6,7-dihydro-1H-imidazo[4,5-c]pyridin-5(4H)-yl)(pyrazolo[1,5-a]pyridin-3-yl)methanone] | > 5000 nM
27 | O=C(c1cnn2ccccc12)N1CCc2[nH]cnc2[C@H]1c1nc2cccc(Cl)c2[nH]1 [Example 986, (S)-(4-(7-chloro-1H-benzo[d]imidazol-2-yl)-6,7-dihydro-1H-imidazo[4,5-c]pyridin-5(4H)-yl)(pyrazolo[1,5-a]pyridin-3-yl)methanone] | 500 to 1000 nM
28 | c1ccc2[nH]c([C@H]3c4nc[nH]c4CCN3c3nc4ccccc4o3)nc2c1 [Example 987, (R)-2-(4-(1H-benzo[d]imidazol-2-yl)-6,7-dihydro-1H-imidazo[4,5-c]pyridin-5(4H)-yl)benzo[d]oxazole] | > 5000 nM
29 | c1ccc2[nH]c([C@@H]3c4nc[nH]c4CCN3c3nc4ccccc4o3)nc2c1 [Example 988, (S)-2-(4-(1H-benzo[d]imidazol-2-yl)-6,7-dihydro-1H-imidazo[4,5-c]pyridin-5(4H)-yl)benzo[d]oxazole] | < 500 nM
30 | O=C(c1cnc(-c2ccccn2)s1)N1CCc2[nH]cnc2[C@H]1c1nc2ccccc2[nH]1 [Example 989, (S)-(4-(1H-benzo[d]imidazol-2-yl)-6,7-dihydro-1H-imidazo[4,5-c]pyridin-5(4H)-yl)(2-(pyridin-2-yl)thiazol-5-yl)methanone] | 500 to 1000 nM
31 | O=C(c1cnn2ccccc12)N1CCc2[nH]cnc2[C@H]1c1nc2cccc(F)c2[nH]1 [Example 990, (S)-(4-(7-fluoro-1H-benzo[d]imidazol-2-yl)-6,7-dihydro-1H-imidazo[4,5-c]pyridin-5(4H)-yl)(pyrazolo[1,5-a]pyridin-3-yl)methanone] | 500 to 1000 nM
